Measurements taken from patent publication US9687493B2, “Use of NK-1 receptor antagonists for treating hypomagnesemia, neurogenic inflammation, and cardiac dysfunction associated with EGFR-blocking drugs” (THE GEORGE WASHINGTON UNIVERSITY, priority 2014, dated 2017).
Where two headings read alike, the source gives them in different places.

Legend:
[1] = rat, in vivo
Procedure: At periodic intervals, blood was collected (˜0.5 ml) aseptically from the tail of anaesthetized rats (2% isoflurane, EZ Anesthesia Chamber with nose cone)(13, 14) in sterile microtainer plasma separator tubes containing heparin and the protease inhibitor, aprotinin (Sigma Chemicals, St. Louis Mo.) to yield final blood concentrations of 10.74 units/ml and 0.016 units/ml, respectively. For subsequent samplings, the scab was carefully removed, and the process was repeated. Plasma was obtained after centrifugation (12,000 rpm, 2 min, RT, IDEXX StatSpin VT, Iris International, Inc., Westwood, Mass.). Tail bleed samples were used for assessment of plasma Mg, and substance P levels. Sacrifice blood samples (˜8 ml collected in heparin plus aprotinin containing BD vacutainer SST tubes) were taken from anaesthetized, heparinized (0.3-0.4 ml 358 units/ml heparin in 0.9% NaCl, i.p.) rats from either the vena cava or by cardiac puncture, and were centrifuged (3,500 rpm, 10 min, RT). […]
Hypomagnesemia alone in rodents can promote neutrophil free radical generating activity (Mak et al., Exp. & Clin. Cardiol. 2011, 16(4):121-124; Mak et al., Magnesium Res 2003, 16(2):91-97). […] Circulating neutrophil basal superoxide generating activity was determined as SOD-inhibitable reduction of cytochrome c (FIG. 3A). Plasma 8-isoprostane was assessed by a colorimetric ELISA kit (FIG. 3B). […]

cancer cells = settings: through NOX-4 up-regulation; cited from earlier work
[2] = rat, in vivo; remark: listed apart in the source
Procedure: Anesthetized rats were subjected to echocardiography periodically during the treatment regimens using a GE VingMed System Five Echocardiogram System (12, 13, 17, and 18). Heart rate and rectal temperature (35.9-37.5° C.) were monitored constantly during the imaging. Animals were placed on a warming platform with paws taped down to limit any motion during imaging, and a sterile eye lubricant was applied to prevent eye drying during the procedure. Hair over the thorax was removed first with an electric clipper, and then with a depilatory cream (<2 min exposure). Animals were imaged (10 MHz probe) for about 20 minutes at an image depth of 3 cm. This imaging system allows for both cardiac structure and function evaluation in rats. Systolic function, measured as % fractional shortening (% FS) using M-mode imaging, and left ventricular ejection fraction (LVEF), calculated from M-mode measurements, were assessed. Key anatomical parameters (IVSd & s=inter-ventricular septum diameter in diastole and systole; and LVPWd & s=LV posterior wall thickness in diastole or systole) were measured to assess the presence of dilated or hypertrophic cardiomyopathy. Measurements of the aortic and pulmonary artery diameters were used to calculate stroke volumes. Aortic pressure max (AoPmax) was assessed; and spectral Doppler velocities were measured for the pulmonic and aortic outflows to calculate cardiac output (CO), and for the mitral valve inflows to assess ventricular diastolic function (mitral valve E and A wave velocities and the E/A ratio were obtained). After echocardiography, animals were placed in room air until awake, and observed until fully recovered.
Rats treated with erlotinib (starting 10 mg/kg/day, oral) and/or Emend (aprepitant, starting 2 mg/kg/day, oral) received echocardiography at the indicated intervals (FIGS. 5A-5C).
Table 3 legend: Interventricular septum dimension in diastole (IVSd) and systole (IVSs); and LV posterior wall thickness in diastole (LVPWd) and systole (LVPWs). Rats treated with erlotinib (starting 10 mg/kg/day, oral) and/or Emend (aprepitant, starting 2 mg/kg/day, oral) received echocardiography at the indicated intervals. Values (% change) for erlotinib±Emend rats were compared to time-matched controls, and are means±SEM of 5-7 rats per group.

[3] = Plasma magnesium by atomic absorption flame emission spectroscopy; type: in vivo, Sprague-Dawley rats; settings: erlotinib starting 10 mg/kg/day oral
Procedure: Individually-housed rats were weighed and food consumption recorded daily to obtain actual drug dosage: time-range average erlotinib dose over 9 weeks was 7.07 mg/kg/day, and time-range average Emend dose over 9 weeks was 1.41 mg/kg/day.
Magnesium levels in 1:50 or 1:100 diluted, acidified (nitric acid) plasma samples were determined by atomic absorption flame emission spectroscopy (wavelength=285.2 nm) using an AA-6200 Shimadzu spectrophotometer (Columbia, Md.) as described (13). Values obtained from standard curves were mg/dl, and reported as % of control.
Plasma was assessed for magnesium by flame emission atomic absorption spectroscopy (FIG. 2A). Data are the means±SEM of 5-7 animals per group. * p<0.05, **p<0.01 and # p<0.001 compared with the time-matched control group; +p<0.055 versus erlotinib alone. Plasma SP (FIG. 2B) was assessed by a colorimetric ELISA kit.

neutrophils = settings: rat, in vivo
Procedure: (§1) At periodic intervals, blood was collected (˜0.5 ml) aseptically from the tail of anaesthetized rats (2% isoflurane, EZ Anesthesia Chamber with nose cone)(13, 14) in sterile microtainer plasma separator tubes containing heparin and the protease inhibitor, aprotinin (Sigma Chemicals, St. Louis Mo.) to yield final blood concentrations of 10.74 units/ml and 0.016 units/ml, respectively. For subsequent samplings, the scab was carefully removed, and the process was repeated. Plasma was obtained after centrifugation (12,000 rpm, 2 min, RT, IDEXX StatSpin VT, Iris International, Inc., Westwood, Mass.). Tail bleed samples were used for assessment of plasma Mg, and substance P levels. Sacrifice blood samples (˜8 ml collected in heparin plus aprotinin containing BD vacutainer SST tubes) were taken from anaesthetized, heparinized (0.3-0.4 ml 358 units/ml heparin in 0.9% NaCl, i.p.) rats from either the vena cava or by cardiac puncture, and were centrifuged (3,500 rpm, 10 min, RT). In addition to the above plasma parameters, sacrifice plasma was also assayed for 8-isoprostane levels, and the whole blood samples were processed for neutrophil isolation and assessment of superoxide anion production.
At sacrifice, whole blood (3 ml) samples were obtained; neutrophils were isolated by a step-gradient centrifugation method (13,−16). Superoxide anion production from neutrophils (0.5-0.75×10^6/ml) with (stimulated) or without (basal) PMA (phorbol myristate acetate, 100 ng/ml) was assayed in a phosphate buffer (pH 7.6) containing 5 mM glucose, 1 mM CaCl2, 1 mM MgCl2, and 75 μM cytochrome c±50 μg SOD. Superoxide generation was estimated as SOD-inhibitable reduction of cytochrome c using the extinction coefficient: E550=2.1×10^4M^−1cm^−1.
Hypomagnesemia alone in rodents can promote neutrophil free radical generating activity (Mak et al., Exp. & Clin. Cardiol. 2011, 16(4):121-124; Mak et al., Magnesium Res 2003, 16(2):91-97). In the present study, blood was sampled from rats treated with erlotinib (starting 10 mg/kg/day, oral) and/or Emend (aprepitant, starting 2 mg/kg/day, oral) at 9 weeks of exposure. Circulating neutrophil basal superoxide generating activity was determined as SOD-inhibitable reduction of cytochrome c (FIG. 3A). Plasma 8-isoprostane was assessed by a colorimetric ELISA kit (FIG. 3B). Values for erlotinib±Emend rats were compared to time-matched controls, and are means±SEM of 4-6 rats per group. ** p<0.01 versus control; ++p<0.01 versus erlotinib alone. […] Enhanced systemic oxidative stress, as represented by increased total plasma 8-isoprostane content (FIG. 3B), was prominent by 9 weeks (210% increase, p<0.01).

[4] = rat, in vivo; remark: listed apart in the source
Procedure: Experiments on animals were conducted in accordance with the principles given in the US Department of Health and Human Services Guide for the Care and Use of Laboratory Animals and were approved by The George Washington University Institutional Animal Care and Use Committee. Male Sprague-Dawley rats (125-150 g) were purchased from Hilltop Lab Animals, Inc. (Scottdale, Pa.). After 1 week of quarantine, all age-matched rats were placed on an ad libitum Mg normal diet (25 mmole magnesium oxide/kg food regarded as 100% recommended daily allowance for rodents) obtained from Harlan-Teklad (Madison, Wis.) containing extracted casein as the diet base supplemented with essential vitamins and nutrients; or the same diet supplemented with erlotinib (OSI Pharmaceuticals, LLC, Northbrook, Ill. 60062, USA) to obtain a starting dose of 10 mg/kg/day, Emend® (as aprepitant, Merck & Co., INC. USA) to obtain a starting dose of 2 mg/kg/day, or both agents at these doses. Individually-housed rats were weighed and food consumption recorded daily to obtain actual drug dosage: time-range average erlotinib dose over 9 weeks was 7.07 mg/kg/day, and time-range average Emend dose over 9 weeks was 1.41 mg/kg/day. Rats had free access to distilled-deionized water, and were on a 12 h light/dark cycle for up to 9 weeks. […]

[5] = male, Sprague-Dawley, rat, in vivo, 9 weeks
Procedure: Male Sprague-Dawley rats (˜150 g) were purchased from Hilltop Lab Animals (Scottdale, Pa.). After one week of quarantine, the rats were divided into 4 groups: (1) Control group (N=5) receiving Mg normal diet (25 mmole Mg Oxide/kg food); (2) Erlotinib treated group (N=5, receiving erlotinib at a starting dose of 10 mg/kg/day in the diet); (3) Erlotinib+Emend group (N=7, receiving erlotinib plus Emend at a starting dose of 2 mg/kg/day in the diet); and (4) Emend alone group (N=5).

[6] = tested on: nitro-tyrosine in cardiac tissue; assay: Cardiac nitro-tyrosine immunohistochemical assessment; type: in vivo, Sprague-Dawley rats; settings: 9 wk of Erlotinib treatment
Procedure: Cardiac tissue was rapidly excised, rinsed in saline, embedded in OCT compound, quickly frozen and kept at […] until used. Cryosections, 5 um thick, were stained by an indirect, immunohistochemical staining method (13) using rabbit anti-rat Nitrotyrosine antibody (5 ug/ml; Millipore, Billerica, Mass.) and the Vecta-Stain Elite ABC kit immunoperoxidase system (Vector Laboratories, Burlingame, Calif.). Samples were examined under an Olympus BX60 microscope, and multiple images were taken with a digital camera (Evolution Color MP; Media Cybernetics, Silver Spring, Md.). Briefly, fresh frozen sections were fixed in 10% formaldehyde, washed in PBS, incubated with 0.3% hydrogen peroxide in methanol for 30 min to block endogenous peroxidase, washed in PBS and incubated overnight at 4 C with rabbit anti nitrotyrosine antibody, which was applied on every slide except negative control. ABC kit reagents for horseradish peroxidase and 3-3′diaminebenzidine (DAB) were used to visualize the antigen-antibody reaction product as brown color. The sections were counterstained with hematoxylin, rinsed, dehydrated and cleared in series of ethanol and xylene and coverslipped.

[7] = Plasma substance P (SP) by ELISA; type: in vivo, Sprague-Dawley rats; settings: erlotinib
Procedure: Experiments on animals were conducted in accordance with the principles given in the US Department of Health and Human Services Guide for the Care and Use of Laboratory Animals and were approved by The George Washington University Institutional Animal Care and Use Committee. Male Sprague-Dawley rats (125-150 g) were purchased from Hilltop Lab Animals, Inc. (Scottdale, Pa.). After 1 week of quarantine, all age-matched rats were placed on an ad libitum Mg normal diet (25 mmole magnesium oxide/kg food regarded as 100% recommended daily allowance for rodents) obtained from Harlan-Teklad (Madison, Wis.) containing extracted casein as the diet base supplemented with essential vitamins and nutrients; or the same diet supplemented with erlotinib (OSI Pharmaceuticals, LLC, Northbrook, Ill. 60062, USA) to obtain a starting dose of 10 mg/kg/day, Emend® (as aprepitant, Merck & Co., INC. USA) to obtain a starting dose of 2 mg/kg/day, or both agents at these doses. Individually-housed rats were weighed and food consumption recorded daily to obtain actual drug dosage: time-range average erlotinib dose over 9 weeks was 7.07 mg/kg/day, and time-range average Emend dose over 9 weeks was 1.41 mg/kg/day. Rats had free access to distilled-deionized water, and were on a 12 h light/dark cycle for up to 9 weeks.
as §1

[8] = patients with colorectal cancer, monoclonal antibodies targeting the EGFR; cited from earlier work

For `C#Cc1cccc(Nc2ncnc3cc(OCCOC)c(OCCOC)cc23)c1` [Erlotinib, erlotinib], the “increase of total plasma 8-isoprostane content” value [1] is given as 210%, the cellular oxidative stress (cancer cells) is given as “can provoke cellular oxidative stress” and the “decline in IVSd” value ([2]; male, Sprague-Dawley) is given as 12.8-16.8%. The “decline in LVPWs” value ([2]; male, Sprague-Dawley) was 9.3-21.9%, the “fall in LVPWd” value ([2]; male, Sprague-Dawley) was 15.6-20.9% and the “lower IVSs” value ([2]; male, Sprague-Dawley) was 11.4-17.5%. The “LV % fractional shortening (LV % FS) lower than time-matched control” value ([2]; male, Sprague-Dawley, 7 weeks) was 17.2%, the “LV ejection fraction (LVEF) lower than time-matched control” value ([2]; male, Sprague-Dawley, 7 weeks) was 10.4% and the “aortic pressure maximum lower than control” value ([2]; male, Sprague-Dawley, 7 weeks) was 17.1%. The “cardiac output reduced vs control” value ([2]; male, Sprague-Dawley, 7 weeks) was 18.8%, the “LV % fractional shortening (LV % FS) lower than time-matched control” value ([2]; male, Sprague-Dawley, 9 weeks) was 17.7% and the “LV ejection fraction (LVEF) lower than time-matched control” value ([2]; male, Sprague-Dawley, 9 weeks) was 11%. The “aortic pressure maximum lower than control” value ([2]; male, Sprague-Dawley, 9 weeks) was 27.5%, the “cardiac output reduced vs control” value ([2]; male, Sprague-Dawley, 9 weeks) was 20.3% and the “mitral valve E/A ratio reduction” value ([2]; male, Sprague-Dawley, 9 weeks) was 17.5%. The “changes in cardiac contractile function” value [2] was “No significant changes”, the “mitral valve E/A ratio” value [2] was “not significantly affected” and the “change in circulating Mg level vs time-matched control” value (“change in circulating Mg level” below) ([3]; 1.5 week) was −2%. For the same compound, the “change in circulating Mg level” value ([3]; 9 weeks, p<0.001) was −26%, the “change in circulating Mg level” value ([3]; wk 3) was −9% and the “change in circulating Mg level” value ([3]; wk 5) was −13%. The “change in circulating Mg level” value ([3]; wk 7) was −16%, the “neutrophil basal superoxide generating activity, higher than control” value (neutrophils) was 3 fold and the “food consumption compared to controls” value [4] was “Neither ERL nor Emend affected food consumption”. The “number of animals that developed facial lesion” value [5] was 5, the “cardiac nitro-tyrosine (NT) presence, immunohistochemical staining” value [6] was “substantial perivascular and diffused NT presence” and the “increase in circulating SP vs time-matched control” value (“increase in circulating SP” below) ([7]; week 3, p<0.05) was 27.3%. The “increase in circulating SP” value ([7]; week 5, NS) was 12.3% and the “increase in circulating SP” value ([7]; week 9, p<0.01) was 25.4%.
In the case of panitumumab, the “hypomagnesemia in treated patients” value [8] is listed as “pronounced hypomagnesemia”.
